Test results from patent US8946266B2, “Substituted triazole and imidazole derivatives as gamma secretase modulators” (Janssen Pharmaceuticals, Inc., priority 2009, dated 2015).
Like-named read-outs stand apart in the source and are kept apart here.

Assays:
Aβ42 [1] = test: γ-secretase-modulating activity, Method 2: Aβ42 Alphalisa in supernatant of SKNBE2 cells carrying APP 695-wild type (Table 3b); format: cell-based; conditions: overnight
Summary of the method: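 SKNBE2 cells expressing wild-type APP695 were incubated overnight at 37° C. with test compound. Secreted Aβ42 was then measured by AlphaLISA, using a C-terminal Aβ42 antibody paired with an N-terminal Aβ antibody. IC50 came from a 4-parameter fit of percent of compound-free control.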

Aβtotal [2] = test: γ-secretase-modulating activity, Method 2: Aβtotal Alphalisa in supernatant of SKNBE2 cells carrying APP 695-wild type (Table 3b); format: cell-based; conditions: overnight, read-out: IC50 Aβtot
Summary of the method: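 SKNBE2 cells expressing wild-type APP 695 were incubated overnight at 37 °C, 5% CO2 with test compound at a range of concentrations. Aβtotal in supernatant was measured by AlphaLISA sandwich (N-terminal JRF/AβN/25 acceptor, biotinylated mid-region 4G8 donor); IC50 from 4-parameter fit of percent control versus log concentration.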

Aβ42 [3] = test: In vivo efficacy, Method 2: brain soluble Aβ42 lowering 4 h after a single oral dose, ELISA (Table 4b); design: species or system mouse; conditions: dose 30 mg/kg oral dosing
Source text: (§1) To determine whether acute administration of an Aβ42 lowering agent would reduce Aβ42 levels in vivo, non-transgenic rodents, e.g. mice or rats were used. Animals treated with the Aβ42 lowering agent were examined and compared to those untreated or treated with vehicle and brain levels of soluble Aβ42 and total Aβ were quantitated by standard techniques, for example, using ELISA. Treatment periods varied from hours (h) to days and were adjusted based on the results of the Aβ42 lowering once a time course of onset of effect could be established.
(§2) A typical protocol for measuring Aβ42 lowering in vivo is shown but it is only one of many variations that could be used to optimize the levels of detectable Aβ. For example, Aβ42 lowering compounds were formulated in 20% of Captisol® (a sulfobutyl ether of β-cyclodextrin) in water or 20% hydroxypropyl β cyclodextrin. The Aβ42 lowering agents were administered as a single oral dose or by any acceptable route of administration to overnight fasted animals. After 4 h, the animals were sacrificed and Aβ42 levels were analysed.
(§3) Blood was collected by decapitation and exsanguinations in EDTA-treated collection tubes. Blood was centrifuged at 1900 g for 10 minutes (min) at 4° C. and the plasma recovered and flash frozen for later analysis. The brain was removed from the cranium and hindbrain. The cerebellum was removed and the left and right hemisphere were separated. The left hemisphere was stored at −18° C. for quantitative analysis of test compound levels. The right hemisphere was rinsed with phosphate-buffered saline (PBS) buffer and immediately frozen on dry ice and stored at −80° C. until homogenization for biochemical assays.
(§4) Mouse brains from non-transgenic animals were resuspended in 8 volumes of 0.4% DEA (diethylamine)/50 mM NaCl containing protease inhibitors (Roche-11873580001 or 04693159001) per gram of tissue, e.g. for 0.158 g brain, add 1.264 ml of 0.4% DEA. All samples were homogenized in the FastPrep-24 system (MP Biomedicals) using lysing matrix D (MPBio #6913-100) at 6 m/s for 20 seconds. Homogenates were centrifuged at 221.300×g for 50 min. The resulting high speed supernatants were then transferred to fresh eppendorf tubes. Nine parts of supernatant were neutralized with 1 part 0.5 M Tris-HCl pH 6.8 and used to quantify Aβtotal and Aβ42.
(§5) To quantify the amount of Aβtotal and Aβ42 in the soluble fraction of the brain homogenates, Enzyme-Linked-Immunosorbent-Assays were used. Briefly, the standards (a dilution of synthetic Aβ1-40 and Aβ1-42, Bachem) were prepared in 1.5 ml Eppendorf tube in Ultraculture, with final concentrations ranging from 10000 to 0.3 pg/ml. The samples and standards were co-incubated with HRPO-labelled N-terminal antibody for Aβ42 detection and with the biotinylated mid-domain antibody 4G8 for Aβtotal detection. 50 μl of conjugate/sample or conjugate/standards mixtures were then added to the antibody-coated plate (the capture antibodies selectively recognize the C-terminal end of Aβ42, antibody JRF/cAβ42/26, for Aβ42 detection and the N-terminus of Aβ, antibody JRF/rAβ/2, for Aβtotal detection). The plate was allowed to incubate overnight at 4° C. in order to allow formation of the antibody-amyloid complex. Following this incubation and subsequent wash steps the ELISA for Aβ42 quantification was finished by addition of Quanta Blu fluorogenic peroxidase substrate according to the manufacturer's instructions (Pierce Corp., Rockford, Ill.). A reading was performed after 10 to 15 min (excitation 320/emission 420).
In this model at least 20% Aβ42 lowering compared to untreated animals would be advantageous.
(§6) The results are shown in Table 4b (dose 30 mg/kg oral dosing): […]

Aβtotal [4] = test: In vivo efficacy, Method 2: brain soluble Aβtotal lowering 4 h after a single oral dose, ELISA (Table 4b); design: species or system mouse; conditions: dose 30 mg/kg oral dosing
Source text: as §1, §2, §3, §4, §5
For Aβtotal detection, a Streptavidine-Peroxidase-Conjugate was added, followed 60 min later by an additional wash step and addition of Quanta Blu fluorogenic peroxidase substrate according to the manufacturer's instructions (Pierce Corp., Rockford, Ill.). A reading was performed after 10 to 15 min (excitation 320 nm/emission 420 nm).
as §6

Row | SMILES | IC50 (Aβ42 [1]) | IC50 (Aβtotal [2]) | also measured
1 | COc1cc(-c2nc(C(=O)Nc3cccc(C(F)(F)F)c3)n(C)n2)ccc1-n1cnc(C)c1 [Compound 329] | 3090 nM | 851 nM | –
2 | COCc1ccc(F)c(Nc2nc(-c3ccc(-n4cnc(C)c4)c(OC)c3)nn2C)c1 [Compound 331] | 56 nM | > 10000 nM | –
3 | COc1cc(-c2nc3n(n2)CCC[C@@H]3c2ccc(F)cc2C)ccc1-n1cnc(C)c1 [Compound 332] | 234 nM | > 10000 nM | –
4 | COc1cc(-c2nc3n(n2)CCC[C@H]3c2ccc(F)cc2C)ccc1-n1cnc(C)c1 [Compound 333] | 26 nM | > 10000 nM | –
5 | COc1cc(-c2nc3n(n2)CCCC3(CO)c2ccc(F)cc2C)ccc1-n1cnc(C)c1 (stereo not shown) [Compound 334] | – | – | IC50 (Aβ42 [1]; Homo sapiens): 263 nM; IC50 (Aβtotal [2]; Homo sapiens): > 10000 nM
6 | COc1cc(-c2nc(Nc3ccccc3)n(C)n2)ccc1-n1cnc(C)c1 [Compound 335] | 200 nM | > 10000 nM | –
7 | COc1cc(-c2nc3n(n2)CCCC3c2ccccc2C(F)(F)F)ccc1-n1cnc(C)c1 (stereo not shown) [Compound 336] | 129 nM | > 10000 nM | –
8 | COc1cc(-c2nc3n(n2)CCC[C@@H]3c2cc(C(F)(F)F)ccc2C)ccc1-n1cnc(C)c1 [Compound 339] | 155 nM | > 10000 nM | –
9 | COc1cc(-c2nc3n(n2)CCC[C@H]3c2cc(C(F)(F)F)ccc2C)ccc1-n1cnc(C)c1 [Compound 341] | 12 nM | 7760 nM | –
10 | COc1nc(-c2nc3n(n2)CCC[C@@H]3c2cc(C(F)(F)F)ccc2C)ccc1-n1cnc(C)c1 [Compound 342] | 162 nM | > 10000 nM | –
11 | COc1cc(-c2nc3n(n2)CCCC3c2ccccc2C)ccc1-n1cnc(C)c1 (stereo not shown) [Compound 344] | 52 nM | > 10000 nM | –
12 | COc1cc(-c2nc3n(n2)CCOC3c2cccc(F)c2C)ccc1-n1cnc(C)c1 (stereo not shown) [Compound 345] | 107 nM | > 10000 nM | –
13 | COc1cc(-c2nc3n(n2)CCOC3c2ccccc2OC(F)(F)F)ccc1-n1cnc(C)c1 (stereo not shown) [Compound 346] | 95 nM | > 10000 nM | –
14 | COc1nc(-c2nc3n(n2)CCOC3c2cccc(F)c2C)ccc1-n1cnc(C)c1 (stereo not shown) [Compound 347] | 126 nM | > 10000 nM | –
15 | COc1nc(-c2nc3n(n2)CCOC3c2ccccc2OC(F)(F)F)ccc1-n1cnc(C)c1 (stereo not shown) [Compound 348] | 79 nM | > 10000 nM | –
16 | COc1cc(-c2nc(N3CCCc4ccccc43)n(C)n2)ccc1-n1cnc(C)c1 [Compound 349] | 257 nM | > 10000 nM | –
17 | COc1cc(-c2nc(Nc3cc(C(F)(F)F)ccc3F)n(C)n2)ccc1-n1ccnc1 [Compound 359] | – | – | IC50 (Aβ42 [1]; Homo sapiens): 95 nM; IC50 (Aβtotal [2]; Homo sapiens): > 10000 nM
18 | COc1nc(-c2nc3n(n2)CCC[C@H]3c2ccc(F)cc2C)ccc1-n1cnc(C)c1 [Compound 361] | 42 nM | – | Aβ42 (% Ctrl) _Mean (Aβ42 [3]): 32 % Ctrl; Aβtotal (% Ctrl) _Mean (Aβtotal [4]): −8 % Ctrl
